In patent US9750805B2, “Calcium flux agonists and methods therefor” (Nant Holdings IP, LLC, priority 2012, dated 2017):

Experiments:
Assay type in all cases: cell-based, human
[1] = system: TLR (TLR2, TLR4, TLR5, TLR9) and NOD (NOD1, NOD2) family members; experiment: IL-8 production with TLR and NOD ligands plus suboptimal calcium flux agonist (FIGS. 3A-3E); conditions: suboptimal doses: 20 nM thapsigargin, 316 nM A23187, 1 μM ionomycin, 10 μM cyclopiazonic acid, 31.6 μM DBHQ
Description: To investigate if that observation was also true for other pattern recognition receptors, and especially for TLR and NOD receptors and other ligands, the inventors tested numerous TLR and NOD receptors and various ligands.
The doses used in this experiment were 20 nM for thapsigargin, 316 nM for A23187, 1 μM for ionomycin, 10 μM for cyclopiazonic acid, and 31.6 μM for DBHQ.
Thus, a clear pattern of adjuvant activity of calcium flux agonists on the immune response, and especially on IL-8 production and NF-κB signaling is evident where the immune response is associated with a TLR- or NOD-mediated event.

NF-κB THP-1 cells = experiment: NF-κB luciferase reporter synergy with TLR2 ligand and effect of Ca2+ modulating compounds (FIG. 4); conditions: FIG. 4; calcium flux agonist plus TLR ligand
Description: For example, human promonocytic THP-1 cells were incubated in the presence or absence of a suboptimal dose of the TLR2 ligand Pam2CSK4 and compared to similarly treated cells which also received suboptimal doses of ionophore (here: A23187 and ionomycin). […] In another example, NF-κB THP-1 cells (a THP-1-derived transfectant line harboring an NF-κB-driven luciferase expression cassette) were cultivated in the presence or absence of a suboptimal dose of the TLR2 ligand Pam2CSK4 and compared to similarly treated cells that also received suboptimal doses of various SERCA inhibitors.
The inventors further investigated if the nature of calcium flux was of significance as increased intracellular calcium may have different origins. To that effect, the inventors used various calcium signaling modulators to investigate the nature of the calcium flux and contribution. As can be readily taken from the data shown, extracellular calcium flux into the cell was critical for synergistic amplification of calcium signaling. More specifically, FIG. 4 illustrates the effects of different Ca^2+ modulating compounds on synergy with respect to NF-κB activation.

[2] = system: κB-LUC THP-1 reporter cells; experiment: κB-LUC THP-1 reporter response to S. aureus conditioned/spent media (FIGS. 5B-5E)
From the text: Briefly, a culture of logarithmically dividing S. aureus was washed three times with RPMI 1640 (Cellgro). Concurrently, THP-1 κB-LUC THP-1's (THP-1 cells containing the stable integration of a NF-κB luciferase reporter gene) cultured in RPMI 1640 (Cellgro) supplemented with 10% FBS (Thermo HyClone, Waltham Mass.) and 1% penicillin-streptomycin-fungizone (Thermo HyClone) were washed three times with RPMI 1640 (Cellgro) and transferred to the bottom compartment of a 24-well 0.4 μm cutoff transwell plate (Corning) at a concentration of 1.2 million/mL. Dilutions of the washed S. aureus culture were then added to the top chamber of the transwell system at the indicated initial multiplicities of infection (MOI). The cells were incubated for 18 hours at 37° C. at which time aliquots of 60,000 cells were transferred to wells in a 384-well white bottom plate (Thermo). To evaluate luciferase gene expression, Bright-Glo Luciferase Assay Reagent (Promega) was added to each well and the plates were analyzed for luciferase activity using the Perkin Elmer TopCount NXT system (Perkin Elmer).
To determine whether the recognition of S. aureus-produced products could be further augmented through modulation of calcium flux, κB-LUC THP-1 reporter cells were incubated in the presence of a 1:100 dilution (V/V) of sterile filtered S. aureus conditioned (i.e. spent) or unused sterile media and treated with a suboptimal dose (20 nM) of thapsigargin or dimethyl sulfoxide (DMSO) vehicle control as described above. Briefly, conditioned media was produced by culturing S. aureus in RPMI with 10% fetal bovine serum overnight in a shaking incubator at 37° C. following which the bacteria were pelleted by centrifugation and the supernatants filter-sterilized using a 0.2 μm filter (VWR Radnor PA). The κB-LUC THP-1 cells were incubated in the presence of the conditioned/spent media for 18 hours prior to luciferase assay as described above.

Row | Structure (SMILES) | effect on IL-8 production with TLR and NOD ligands [1] | effect of Ca2+ modulating compound on synergy with respect to NF-κB activation (NF-κB THP-1 cells) | effect on calcium flux-induced synergy [2]
1 | CC(C)(C)c1cc(O)c(C(C)(C)C)cc1O [DBHQ, 2,5-di-tert-butylhydroquinone] | synergistic effect | – | –
2 | O=C(O)CN(CCOCCOCCN(CC(=O)O)CC(=O)O)CC(=O)O [EGTA] | – | reduces synergistic signal down to levels in line with what is achieved by TLR ligand alone | inhibited
3 | CN([C@@H](Cc1ccc(OS(=O)(=O)c2cccc3cnccc23)cc1)C(=O)N1CCN(c2ccccc2)CC1)S(=O)(=O)c1cccc2cnccc12 [KN-62] | – | does not alter reporter gene expression levels | –
